Laboratory results published in paper PMC3049593 (British Journal of Cancer, 2011).

Experiments:
heparanase = molecular target: heparanase; parameters: method as in Dredge et al, 2010; conditions: ref Dredge et al, 2010; read-out: Ki (heparanase inhibitor); cited from earlier work
[1] = body weight loss in tumour-bearing mice; type: in vivo; conditions: for body weight loss at the end of the study: MDA-MB-231 model
HepG2 tumours = experiment: HepG2 liver xenograft model; type: in vivo, nude mice
Procedure: (§1) In the orthotopic Hep3b2.1-7 human liver cancer model, treatment of mice (n=10) began 14 days after inoculation of 2.5 × 10^6 cells. […] To initiate tumour xenografts, MDA-MB-231, PC3, Cal27 and HepG2 cells were injected s.c. into nude mice (n=8) at 4, 5, 2 and 2 × 10^7 cells ml^−1, respectively. […] In the B16F0 lung metastasis model, 2 × 10^5 cells were injected via the tail vein of C57Bl6 mice (n=8). […] Surface lung macrometastases were counted for each group (n=9) upon study termination. In the intrasplenic HT-29 xenograft model, 1 × 10^6 cells in 100 μl were injected into the spleen. […] Solid tumours were measured in two dimensions (length and width) and the tumour volume (cm^3) was calculated using the equation: V=length × width^2 × π/6. The anti-tumour activity was expressed as percent tumour growth inhibition (%TGI). Further details are available in Supplementary Methods. […]
(§2) antibody. […]
(§3) staining. For quantification, three independent visual fields (20x magnification) were chosen and positive stained spots or vessels with identifiable lumen were counted.
(§4) Angiogenesis inhibition and induction were calculated using the equations: […]
(§5) regimen both before and after tumour cell inoculation (days -6, -3, 0, +3, +6) or only after tumour cell inoculation (days 0, +3, +6). B16 cell (2x105) were inoculated via tail vein injections and mice were culled and assessed for lung metastases on day 12. […]

Cal27 tumours = experiment: Cal27 head and neck xenograft model; type: in vivo, nude mice; conditions: 20 mg kg^−1 once-weekly s.c.
Procedure: as §1, §2, §3, §4, §5

HepG2 cells = experiment: in vitro cytotoxicity (LC50); type: cell-based; conditions: read-out: LC50 (concentration lethal to 50% of cells)
[2] = system: angiogenesis (endothelial cells, rat aortic ring); parameters: method as in Dredge et al, 2010; conditions: endothelial cell assays in vitro and ex vivo rat aortic ring assay; ref Dredge et al, 2010; cited from earlier work
PC3 tumours = experiment: PC3 prostate xenograft model; type: in vivo, nude mice
Procedure: as §1, §2, §3, §4, §5

Compound: CC(C)CCC[C@@H](C)[C@H]1CCC2C3CCC4C[C@@H](O[C@@H]5O[C@H](COS(=O)(=O)[O-])[C@@H](O[C@H]6O[C@H](COS(=O)(=O)[O-])[C@@H](O[C@H]7O[C@H](COS(=O)(=O)[O-])[C@@H](O[C@H]8O[C@H](COS(=O)(=O)[O-])[C@@H](OS(=O)(=O)[O-])[C@H](OS(=O)(=O)[O-])[C@H]8OS(=O)(=O)[O-])[C@H](OS(=O)(=O)[O-])[C@H]7OS(=O)(=O)[O-])[C@H](OS(=O)(=O)[O-])[C@H]6OS(=O)(=O)[O-])[C@H](OS(=O)(=O)[O-])[C@H]5OS(=O)(=O)[O-])CC[C@]4(C)C3CC[C@@]21C.[Na+].[Na+].[Na+].[Na+].[Na+].[Na+].[Na+].[Na+].[Na+].[Na+].[Na+].[Na+].[Na+] (stereo partly shown) [PG545]
- Ki (heparanase): 6 nM
- body weight loss nadir ([1]; B16 model): 8%
- body weight loss nadir ([1]; HT-29 model): 12%
- body weight loss ([1]; Hep3b2.1-7 model, 20 mg kg^−1 followed by twice-weekly 10 mg kg^−1): 4%
- body weight loss ([1]; Hep3b2.1-7 model, 20 mg kg^−1 twice-weekly): 9%
- body weight nadir (loss) ([1]; LL/2 model): 5%
- body weight loss at the end of the study ([1]; 20 mg kg^−1 once-weekly): 4%
- body weight loss at the end of the study ([1]; 20 mg kg^−1 twice-weekly): 6%
- body weight loss at the end of the study ([1]; 30 mg kg^−1 once-weekly): 11%
- body weight loss at the end of the study ([1]; 30 mg kg^−1 twice-weekly): 10%
- body weight loss ([1]; PC3 model, 20 mg kg^−1 once-weekly): 6%
- body weight loss ([1]; PC3 model, 20 mg kg^−1 twice-weekly): 16%
- TGI (HepG2 tumours; 20 mg kg^−1 once-weekly s.c.): 55%
- TGI (HepG2 tumours; 20 mg kg^−1 twice-weekly s.c.): 45%
- TGI (Cal27 tumours): 57%
- CC50 (HepG2 cells): > 100000 nM
- angiogenesis inhibitor potency [2]: ≤ 1000 nM
- TGI (PC3 tumours; 20 mg kg^−1 once-weekly s.c.): 74%
- TGI (PC3 tumours; 20 mg kg^−1 twice-weekly s.c.): 83%
